Measured values: patent publication US11814367B2, “Inhibitors of glycogen synthase 1 (GYS1) and methods of use thereof” (Maze Therapeutics, Inc., priority 2021, dated 2023)

How the values were obtained:
[1] = target: hGYS1 enzyme (recombinant hGYS1/GN1 protein) (Homo sapiens (Human), UniProt P13807); experiment: GYS1 coupled enzyme assay (PK/LDH); format: biochemical; conditions: hGYS1/GN1 50 nM, UDP-Glucose 0.8 mM, G6P 1 mM; geometric mean of at least 2 runs
[2] = target: hGYS2 enzyme (recombinant hGYS2/GN1 protein) (Homo sapiens (Human), UniProt P54840); experiment: GYS2 coupled enzyme assay (PK/LDH); format: biochemical; conditions: geometric mean of at least 2 assay runs on separate days, read-out: Avg_IC50
Chain of hGYS2 enzyme (recombinant hGYS2/GN1 protein) (P54840 whole entry): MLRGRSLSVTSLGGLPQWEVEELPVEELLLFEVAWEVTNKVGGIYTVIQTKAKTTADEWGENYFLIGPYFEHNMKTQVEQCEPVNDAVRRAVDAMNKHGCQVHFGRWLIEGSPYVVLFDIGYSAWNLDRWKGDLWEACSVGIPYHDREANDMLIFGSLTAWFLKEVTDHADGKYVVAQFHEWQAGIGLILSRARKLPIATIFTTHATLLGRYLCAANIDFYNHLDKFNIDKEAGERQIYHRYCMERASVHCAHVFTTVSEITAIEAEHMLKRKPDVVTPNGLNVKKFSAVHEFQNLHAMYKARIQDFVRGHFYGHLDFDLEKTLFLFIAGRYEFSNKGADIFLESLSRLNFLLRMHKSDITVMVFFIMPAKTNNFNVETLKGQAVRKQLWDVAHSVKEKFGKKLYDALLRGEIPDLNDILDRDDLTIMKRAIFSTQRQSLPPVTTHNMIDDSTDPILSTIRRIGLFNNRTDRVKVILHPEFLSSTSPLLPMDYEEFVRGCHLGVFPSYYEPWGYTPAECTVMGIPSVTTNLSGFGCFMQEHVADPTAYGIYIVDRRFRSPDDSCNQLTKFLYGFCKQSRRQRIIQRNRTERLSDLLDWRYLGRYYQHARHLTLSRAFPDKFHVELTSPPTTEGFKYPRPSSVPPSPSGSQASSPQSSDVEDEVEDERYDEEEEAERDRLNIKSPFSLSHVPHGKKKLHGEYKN
Chain of hGYS2 enzyme (recombinant hGYS2/GN1 protein) (P46976 whole entry partner): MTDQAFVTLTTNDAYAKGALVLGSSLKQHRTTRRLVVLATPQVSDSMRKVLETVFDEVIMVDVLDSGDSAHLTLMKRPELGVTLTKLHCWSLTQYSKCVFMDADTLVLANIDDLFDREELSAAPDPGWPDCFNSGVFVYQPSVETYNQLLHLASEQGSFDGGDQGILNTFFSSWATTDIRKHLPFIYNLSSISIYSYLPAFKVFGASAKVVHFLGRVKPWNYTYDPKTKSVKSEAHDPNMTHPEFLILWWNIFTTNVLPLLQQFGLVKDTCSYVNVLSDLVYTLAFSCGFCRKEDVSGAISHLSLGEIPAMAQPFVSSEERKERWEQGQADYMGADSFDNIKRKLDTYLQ
From the text: The GYS2 coupled enzyme assay is a kinetic biochemical assay that indirectly quantifies the rate of glycogen synthesis by coupling the conversion of GYS2 substrate UDP-glucose into UDP with downstream enzymatic reactions. UDP is released from UDP-glucose as glucose monomers are linked into the growing glycogen strand by GYS2. The coupled assay then proceeds with pyruvate kinase utilizing UDP and phospho(enol)pyruvate (PEP) to form pyruvate. Lactate dehydrogenase then converts pyruvate and NADH into lactate and NAD+. Oxidation of NADH to NAD+ can be measured continuously with a plate reader by quantifying the decrease in NADH absorbance at 340 nm over time.
Compounds that inhibit the hGYS2 enzyme and, subsequently, the downstream conversion of NADH to NAD+, were tested using assay ready plates (black, clear bottom 384 well plates) in a final DMSO reaction volume of 2.5% DMSO. The Assay Buffer contained 50 mM Tris pH 7.5, 2 mM MgCl2, and 100 mM KCl. Fresh stocks of BSA at a final concentration of 0.02% and TCEP 1 mM were added before splitting buffer into hGYS2 buffer and substrate buffer. To the hGYS2 buffer, rabbit liver glycogen was added at a final concentration of 0.2% glycogen. Glucose-6-Phosphate was added at 2 mM, recombinant hGYS2/GN1 protein was added at 200 nM to the substrate buffer, phosphoenolpyruvate (PEP) was added at 2 mM, UDP-Glucose was added at 2 mM, NADH was added at 0.6 mM, and Pyruvate Kinase/Lactate Dehydrogenase was added at 20 units/mL. The reaction was initiated by mixing hGYS2 buffer and substrate buffer at a 1:1 ratio. Both buffers were plated using a liquid dispensing device with hGYS2 buffer plated first followed by the substrate buffer. Plates were spun briefly to eliminate air bubbles and are immediately read in continuous mode at an absorbance of 340 nm, for 10 time points in one-minute increments, for a total of 10 minutes. The slope from these 10 time points was normalized to the positive and negative control wells. The duplicate % inhibition values are then averaged and fit to a Hill equation for dose response according to the Levenberg-Marquardt algorithm with the Hill equation maximum set to 100 and the minimum set to 0.
The results are shown in Table 4 below, which reports the IC50 of each compound. Unless otherwise specified, IC50 values are reported as the geometric mean of at least 2 assay runs on separate days. As shown in the table below, the compounds of the present invention are not potent inhibitors of human GYS2. Unless otherwise specified, IC50 values are reported as the geometric mean of at least two assay runs on separate days. Each run represents the average of a technical replicate, where each compound was assayed twice in the same plate. A superscript “#” symbol in Table 4 indicates results from a single assay run.

Chain of hGYS1 enzyme (recombinant hGYS1/GN1 protein) (P13807 whole entry): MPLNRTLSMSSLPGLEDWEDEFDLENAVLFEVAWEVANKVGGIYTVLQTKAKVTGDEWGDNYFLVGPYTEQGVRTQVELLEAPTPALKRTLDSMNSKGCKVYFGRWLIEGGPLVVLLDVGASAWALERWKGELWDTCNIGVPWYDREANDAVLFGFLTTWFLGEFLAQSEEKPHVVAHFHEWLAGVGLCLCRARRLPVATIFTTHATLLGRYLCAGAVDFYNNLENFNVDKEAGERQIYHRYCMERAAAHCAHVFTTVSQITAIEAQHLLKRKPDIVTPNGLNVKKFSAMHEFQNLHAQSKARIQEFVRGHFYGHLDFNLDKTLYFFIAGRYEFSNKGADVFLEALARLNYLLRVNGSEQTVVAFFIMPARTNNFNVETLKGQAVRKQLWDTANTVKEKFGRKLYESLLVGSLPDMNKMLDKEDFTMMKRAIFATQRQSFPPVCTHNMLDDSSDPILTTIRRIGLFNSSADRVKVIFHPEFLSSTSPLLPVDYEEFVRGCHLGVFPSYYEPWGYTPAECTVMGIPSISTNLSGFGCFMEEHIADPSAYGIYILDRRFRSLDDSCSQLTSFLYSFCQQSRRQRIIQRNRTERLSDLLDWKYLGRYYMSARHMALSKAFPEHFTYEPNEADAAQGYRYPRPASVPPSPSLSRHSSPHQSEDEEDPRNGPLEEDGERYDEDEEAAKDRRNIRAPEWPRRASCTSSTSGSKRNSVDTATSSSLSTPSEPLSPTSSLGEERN
Chain of hGYS1 enzyme (recombinant hGYS1/GN1 protein) (P46976 whole entry partner): as the sequence (P46976 whole entry partner) above

IC50 [1] [nM] | IC50 [2] [nM] | Compound
42 | > 100000 | Cc1cn(CC(=O)N2C[C@H](F)C[C@H]2C(=O)N[C@@H](c2ccccc2)c2ccc(C(C)C)c(F)n2)c(=O)n(C)c1=O (relative stereo) [Compound 777, (2S,4R)-1-[2-(3,5-dimethyl-2,4-dioxo-1,2,3,4-tetrahydropyrimidin-1-yl)acetyl]-4-fluoro-N-[(R*)-[6-fluoro-5-(propan-2-yl)pyridin-2-yl](phenyl)methyl] pyrrolidine-2-carboxamide]
602 | > 100000 | CC(=O)N1C[C@H](F)C[C@H]1C(=O)NC(c1ccccc1)c1ccc(C2CCC2)cn1 (single isomer, unassigned) [Compound 603, (2S,4R)-1-acetyl-N-[(S) or (R)-(5-cyclobutylpyridin-2-yl) (phenyl)methyl]-4-fluoropyrrolidine-2-carboxamide]
142 | > 100000 | CC(C)c1ccc(C(NC(=O)[C@@H]2C[C@@H](F)CN2C(=O)Cc2cnn[nH]2)c2ccc(N)nc2)cc1F (single isomer, unassigned) [Compound 620, (2S,4R)-N-[(R) or (S)-(6-aminopyridin-3-yl)[3-fluoro-4-(propan-2-yl)phenyl]methyl]-4-fluoro-1-[2-(1H-1,2,3-triazol-5-yl)acetyl]pyrrolidine-2-carboxamide]
43 | > 100000 | CC(C)c1c(F)cc(C(NC(=O)[C@@H]2C[C@@H](F)CN2C(=O)Cc2ncco2)c2ccccc2)cc1F (single isomer, unassigned) [Compound 661, (2S,4R)-N-[(S) or (R)-[3,5-difluoro-4-(propan-2-yl)phenyl](phenyl)methyl]-4-fluoro-1-[2-(1,3-oxazol-2-yl)acetyl]pyrrolidine-2-carboxamide]
227 | > 100000 | O=C(NC(c1ccccc1)c1cc(F)c(C2CC2)c(F)c1)[C@@H]1C[C@@H](F)CN1C(=O)Cc1ncco1 (single isomer, unassigned) [Compound 662]
106 | > 100000 | CC(C)c1ccc([C@@H](NC(=O)[C@@H]2C[C@@H](F)CN2C(=O)C(C)n2cnnn2)c2ccccc2)cc1F (single isomer, unassigned) [Compound 767, (2S,4R)-4-fluoro-N-[(S)-[3-fluoro-4-(propan-2-yl)phenyl](phenyl)methyl]-1-[(2S) or (2R)-2-(1H-1,2,3,4-tetrazol-1-yl)propanoyl]pyrrolidine-2-carboxamide]
62 | > 100000 | CC(C)c1ccc([C@@H](NC(=O)[C@@H]2C[C@@H](F)CN2C(=O)C(C)c2cnn[nH]2)c2ccccc2)cc1F (single isomer, unassigned) [Compound 770, (2S,4R)-4-fluoro-N-[(S)-[3-fluoro-4-(propan-2-yl)phenyl](phenyl)methyl]-1-[(2S) or (2R)-2-(1H-1,2,3-triazol-5-yl)propanoyl]pyrrolidine-2-carboxamide]
211 | > 100000 | CC(=O)N1CC[C@@]2(C1)C(=O)NCC2C(=O)N1C[C@H](F)C[C@H]1C(=O)N[C@@H](c1ccccc1)c1ccc(C(C)C)cc1 (stereo in doubt) [Compound 6, (2S,4R)-1-[(4S,5R)-7-acetyl-7-oxo-2,7-diazaspiro[4.4]nonane-4-carbonyl]-4-fluoro-N-[(S)-phenyl[4-(propan-2-yl)phenyl]methyl]pyrrolidine-2-carboxamide]
– | > 100000 | CC(C)c1ccc([C@@H](NC(=O)[C@@H]2C[C@@H](F)CN2C(=O)Cc2ncccn2)c2ccccc2)cc1 [Compound 28, (2S,4R)-4-fluoro-N-[(S)-phenyl[4-(propan-2-yl)phenyl]methyl]-1-[2-(pyrimidin-2-yl)acetyl]pyrrolidine-2-carboxamide]
2220 | – | CC(C)c1ccc([C@@H](NC(=O)[C@@H]2C[C@@H](F)CN2C(=O)c2ccc3c(n2)NC(=O)CC3)c2ccccc2)cc1 [Compound 704, (2S,4R)-4-fluoro-1-(7-oxo-5,6,7,8-tetrahydro-1,8-naphthyridine-2-carbonyl)-N-[(S)-phenyl[4-(propan-2-yl)phenyl]methyl]pyrrol-idine-2-carboxamide]
1720 | – | CC(C)COc1cc(C(=O)N2C[C@H](F)C[C@H]2C(=O)N[C@@H](c2ccccc2)c2ccc(C(C)C)cc2)ccn1 [Compound 705, (2S,4R)-4-fluoro-1-[2-(2-methylpropoxy)pyridine-4-carbonyl]-N-[(S)-phenyl[4-(propan-2-yl)phenyl]methyl]pyrrol-idine-2-carboxamide]
1990 | – | CC(C)c1ccc([C@@H](NC(=O)[C@@H]2C[C@@H](F)CN2C(=O)c2cc(-n3ccnc3)ccn2)c2ccccc2)cc1 [Compound 707, (2S,4R)-4-fluoro-1-[4-(1H-imidazol-1-yl)pyridine-2-carbonyl]-N-[(S)-phenyl[4-(propan-2-yl)phenyl]methyl]pyrrol-idine-2-carboxamide]
2510 | – | CC(C)c1ccc([C@@H](NC(=O)[C@@H]2C[C@@H](F)CN2C(=O)C(=O)Nc2cccnc2)c2ccccc2)cc1 [Compound 708, (2S,4R)-4-fluoro-N-[(S)-phenyl[4-(propan-2-yl)phenyl]methyl]-1-{[(pyridin-3-yl)carbamoyl]carbonyl} pyrrolidine-2-carboxamide]
1140 | – | COc1cc(C(=O)N2C[C@H](F)C[C@H]2C(=O)N[C@@H](c2ccccc2)c2ccc(C(C)C)cc2)nn1C [Compound 709, (2S,4R)-4-fluoro-1-(5-methoxy-1-methyl-1H-pyrazole-3-carbonyl)-N-[(S)-phenyl[4-(propan-2-yl)phenyl]methyl]pyrrol-idine-2-carboxamide]
105 | – | CC(C)c1ccc([C@@H](NC(=O)[C@@H]2C[C@@H](F)CN2C(=O)Cn2nncc2N2CCC2)c2ccccc2)nc1 [Compound 715, (2S,4R)-1-{2-[5-(azetidin-1-yl)-1H-1,2,3-triazol-1-yl]acetyl}-4-fluoro-N-[(S)-phenyl[5-(propan-2-yl)pyridin-2-yl]methyl]pyrrolidine-2-carboxamide]
55 | – | Cc1nc(CC(=O)N2C[C@H](F)C[C@H]2C(=O)N[C@@H](c2ccccc2)c2ccc(C3CC3)c(F)n2)oc1C [Compound 761, (2S,4R)-N-[(S)-(5-cyclopropyl-6-fluoropyridin-2-yl)(phenyl)methyl]-1-[2-(4,5-dimethyl-1,3-oxazol-2-yl)acetyl]-4-fluoropyrrolidine-2-carboxamide]
27 | – | O=C(N[C@@H](c1ccccc1)c1ccc(C2CC2)c(F)n1)[C@@H]1C[C@@H](F)CN1C(=O)Cn1nncc1N1CCC1 [Compound 762, (2S,4R)-1-{2-[5-(azetidin-1-yl)-1H-1,2,3-triazol-1-yl]acetyl}-N-[(S)-(5-cyclopropyl-6-fluoropyridin-2-yl)(phenyl)methyl]-4-fluoropyrrolidine-2-carboxamide]
466 | – | O=C(N[C@@H](c1ccccc1)c1ccc(C2CC2)c(F)n1)[C@@H]1[C@@H](O)[C@H](F)CN1C(=O)Cn1nnnc1C(F)F [Compound 763, (2S,3R,4R)-N-[(S)-(5-cyclopropyl-6-fluoropyridin-2-yl)(phenyl)methyl]-1-{2-[5-(difluoromethyl)-1H-1,2,3,4-tetrazol-1-yl]acetyl}-4-fluoro-3-hydroxypyrrolidine-2-carboxamide]
155 | – | O=C(N[C@@H](c1ccccc1)c1ccc(C2CC2)c(F)n1)[C@@H]1[C@H](O)[C@@H](F)CN1C(=O)Cn1nnnc1C(F)F [Compound 764, (2S,3S,4S)-N-[(S)-(5-cyclopropyl-6-fluoropyridin-2-yl)(phenyl)methyl]-1-{2-[5-(difluoromethyl)-1H-1,2,3,4-tetrazol-1-yl]acetyl}-4-fluoro-3-hydroxypyrrolidine-2-carboxamide]
12 | – | CC(C)c1ccc([C@@H](NC(=O)[C@@H]2C[C@@H](F)CN2C(=O)Cn2nncc2N2CCC2)c2ccccc2)nc1F [Compound 808, (2S,4R)-1-{2-[5-(azetidin-1-yl)-1H-1,2,3-triazol-1-yl]acetyl}-4-fluoro-N-[(S)-[6-fluoro-5-(propan-2-yl)pyridin-2-yl](phenyl)methyl] pyrrolidine-2-carboxamide]
